Reference: patent US20110028566A1, “COMPOSITIONS AND PRODUCTS CONTAINING CYCLOALIPHATIC DIOL ANTIMICROBIAL AGENTS AND METHODS OF USING THE COMPOSITIONS AND PRODUCTS” (EASTMAN CHEMICAL COMPANY, priority 2009, published 2011)

Columns and labels:
Assay in all cases: Microbial challenge testing in BPW
Format in all cases: cell-based
Candida albicans = system: Candida albicans
Protocol: (§1) The microorganisms used in challenge tests are given in Table 3, designated as either ATCC (American Type Culture Collection) or wild type. These wild type organisms were problematic organisms previously isolated from chemical products. In the description for each organism, the bacteria are indicated as either GN (Gram negative) or GP (Gram positive).
(§2) All of the microorganisms were grown in Tryptose Soy Broth (TSB), DIFCO™ available from Becton, Dickinson and Company, containing 1% dextrose. Aspergillus niger and Candida albicans were incubated at 22° C.±2° C. for at least 96 hours. All bacteria were incubated at 35° C.±2° C. in a humidified incubator for at least 96 hours.
Aspergillus niger and Candida albicans were also grown on Sabouraud dextrose agar (SDA) at 22° C.±2° C. for 7 to 14 days or until full sporulation was achieved.
(§3) The following procedure was followed to determine the amount of each challenge material (inoculum broth) required to produce a 10^8 cfu/mL challenge, which is equivalent to a final test-sample microbial concentration of 10^5 to 10^6 cfu (colony-forming units)/mL.
(§4) Using a sterile serological pipette, 1 mL of the growth from each TSB culture was transferred into tubes containing 9 mL phosphate buffer (pH 7.2) and mixed thoroughly. This process was repeated to make serial 1:10 dilutions. Then 0.1 mL of each sample and dilution was inoculated onto agar plates to produce the equivalent of a further 1:10 dilution. C. albicans and A. niger were inoculated onto SDA and bacteria were inoculated onto Plate Count Agar (PCA), DIFCO™ available from Becton, Dickinson and Company. The 0.1 mL aliquots were evenly distributed on the plates using the spread-plate technique. The spread-plate technique is performed by spreading the aliquot over the entire plate surface using a sterile spreading rod while rotating the plate with a rotary auto-plater. After the inoculum was absorbed completely, each plate was inverted and incubated (fungi at 22° C.±2° C. and bacteria at 35° C.±2° C.).
(§5) After incubation for at least 48 hours, colonies that had developed on the agar plates were counted and recorded with the corresponding dilution. If counting had to be delayed temporarily, plates were refrigerated, preferably no more than 24 hours, until they could be counted. The number of cfu/mL was determined by multiplying the count by the dilution factor for that particular plate.
(§6) Turbidity in Nepholemetric Turbidity Units (NTU) was measured for each serial dilution using the HF-Micro 100 Model Turbidimeter. For each microorganism, the plate counts were compared to the turbidity readings.
On the day of challenge, the Candida albicans inoculum broth was poured through non-absorbent sterile gauze and centrifuged. The […] was then diluted with phosphate buffer (pH 7.2) until the desired turbidity was reached. Using a hemocytometer, a determination was made whether the challenge contained the desired concentration. Dilutions were made through 1.0×10^8 and three SDA spread plates were inoculated with 0.1 mL of each dilution.
(§7) Control substrates (“broth alone”) were prepared for each microorganism separately in triplicate by adding 13.5 mL of BPW (pH 7.0) containing 1% (w/v) dextrose to each 20-mL glass tube; then adding 1.5 mL challenge material to produce a final concentration at time zero of 10^5 to 10^6 cfu/mL and a total volume of 15 mL.
Test sample substrates were prepared containing each test material (1,4-CHDM, etc) or combination of test materials at the concentrations shown in Tables 5 and 6.

Escherichia coli = system: Escherichia coli
Protocol: as §1, §2, §3, §4, §5, §6, §7
(§8) Test sample substrates were prepared containing each test material (1,4-CHDM, etc) or combination of test materials at the concentrations shown in Tables 5 and 6. Sample substrates were prepared in triplicate, except those substrates containing PE or CG which were prepared in duplicate. Substrates were prepared by adding BPW containing 1% (w/v) dextrose to each 20-mL glass tube, then adding the test material in the amount appropriate to achieve the desired weight/volume percent (g/100 mL) and to obtain a total volume of BPW with dextrose and test material of 13.5 mL. Then 1.5 mL challenge material was added to produce a final concentration at time zero of 10^5 to 10^6 cfu/mL of the respective organism and a total test sample substrate volume of 15 mL.
(§9) After mixing, all challenged substrates were incubated at 35° C.±2° C. for 14 days and then at ambient room temperature.

Aeromonas sp. = system: Aeromonas sp.
Protocol: as §1, §2, §3, §4, §5, §6, §7, §8, §9

Staphylococcus aureus = system: Staphylococcus aureus
Protocol: as §1, §2, §3, §4, §5, §6, §7, §8, §9

Bacillus subtilis = system: Bacillus subtilis
Protocol: as §1, §2, §3, §4, §5, §6, §7, §8, §9

Proteus vulgaris = conditions: 0.05%
Protocol: as §1, §2, §3, §4, §5, §6, §7, §8, §9

SMILES: O=c1[nH]sc2ccccc12 [BIT, 1,2-benzisothiazolin-3-one]
- Grade code C. albicans (Candida albicans; 0.05%, 3 days incubation): 4 (1001 to 10,000 colonies (thus 10,000 cfu/mL to 100,000 cfu/mL))
- Grade code C. albicans (Candida albicans; 0.05%, 14 days incubation): 4 (1001 to 10,000 colonies (thus 10,000 cfu/mL to 100,000 cfu/mL))
- Grade code C. albicans (Candida albicans; 0.05%, 30 days incubation): 4 (1001 to 10,000 colonies (thus 10,000 cfu/mL to 100,000 cfu/mL))
- Grade code C. albicans (Candida albicans; 0.2%, 3 days incubation): 4 (1001 to 10,000 colonies (thus 10,000 cfu/mL to 100,000 cfu/mL))
- Grade code C. albicans (Candida albicans; 0.2%, 14 days incubation): 3 (101 to 1000 colonies (thus 1000 to 10,000 cfu/mL))
- Grade code C. albicans (Candida albicans; 0.2%, 30 days incubation): 3 (101 to 1000 colonies (thus 1000 to 10,000 cfu/mL))
- Grade code E. coli (Escherichia coli; 0.05%, 3 days incubation): 4 (1001 to 10,000 colonies (thus 10,000 cfu/mL to 100,000 cfu/mL))
- Grade code E. coli (Escherichia coli; 0.05%, 14 days incubation): 4 (1001 to 10,000 colonies (thus 10,000 cfu/mL to 100,000 cfu/mL))
- Grade code E. coli (Escherichia coli; 0.05%, 30 days incubation): 4 (1001 to 10,000 colonies (thus 10,000 cfu/mL to 100,000 cfu/mL))
- Grade code E. coli (Escherichia coli; 0.2%, 3 days incubation): 1 (1 to 51 colonies counted (thus 10 to 510 cfu/mL))
- Grade code E. coli (Escherichia coli; 0.2%, 14 days incubation): 0 (No growth detected or <1 colony (thus <10 cfu/mL))
- Grade code E. coli (Escherichia coli; 0.2%, 30 days incubation): 0 (No growth detected or <1 colony (thus <10 cfu/mL))
- Grade code Aeromonas sp (Aeromonas sp.; 0.05%, 3 days incubation): 5 (More than 10,000 colonies estimated (thus >100,000 cfu/mL))
- Grade code Aeromonas sp (Aeromonas sp.; 0.05%, 14 days incubation): 4 (1001 to 10,000 colonies (thus 10,000 cfu/mL to 100,000 cfu/mL))
- Grade code Aeromonas sp (Aeromonas sp.; 0.05%, 30 days incubation): 4 (1001 to 10,000 colonies (thus 10,000 cfu/mL to 100,000 cfu/mL))
- Grade code Aeromonas sp (Aeromonas sp.; 0.2%, 3 days incubation): 4 (1001 to 10,000 colonies (thus 10,000 cfu/mL to 100,000 cfu/mL))
- Grade code Aeromonas sp (Aeromonas sp.; 0.2%, 14 days incubation): 2 (52 to 100 colonies counted (thus 520 to 1000 cfu/mL))
- Grade code Aeromonas sp (Aeromonas sp.; 0.2%, 30 days incubation): 2 (52 to 100 colonies counted (thus 520 to 1000 cfu/mL))
- Grade code S. aureus (Staphylococcus aureus; 0.05%, 3 days incubation): 4 (1001 to 10,000 colonies (thus 10,000 cfu/mL to 100,000 cfu/mL))
- Grade code S. aureus (Staphylococcus aureus; 0.05%, 14 days incubation): 4 (1001 to 10,000 colonies (thus 10,000 cfu/mL to 100,000 cfu/mL))
- Grade code S. aureus (Staphylococcus aureus; 0.05%, 30 days incubation): 4 (1001 to 10,000 colonies (thus 10,000 cfu/mL to 100,000 cfu/mL))
- Grade code S. aureus (Staphylococcus aureus; 0.2%, 3 days incubation): 4 (1001 to 10,000 colonies (thus 10,000 cfu/mL to 100,000 cfu/mL))
- Grade code S. aureus (Staphylococcus aureus; 0.2%, 14 days incubation): 3 (101 to 1000 colonies (thus 1000 to 10,000 cfu/mL))
- Grade code S. aureus (Staphylococcus aureus; 0.2%, 30 days incubation): 3 (101 to 1000 colonies (thus 1000 to 10,000 cfu/mL))
- Grade code B. subtilis (Bacillus subtilis; 0.05%, 3 days incubation): 4 (1001 to 10,000 colonies (thus 10,000 cfu/mL to 100,000 cfu/mL))
- Grade code B. subtilis (Bacillus subtilis; 0.05%, 14 days incubation): 4 (1001 to 10,000 colonies (thus 10,000 cfu/mL to 100,000 cfu/mL))
- Grade code B. subtilis (Bacillus subtilis; 0.05%, 30 days incubation): 4 (1001 to 10,000 colonies (thus 10,000 cfu/mL to 100,000 cfu/mL))
- Grade code B. subtilis (Bacillus subtilis; 0.2%, 3 days incubation): 4 (1001 to 10,000 colonies (thus 10,000 cfu/mL to 100,000 cfu/mL))
- Grade code B. subtilis (Bacillus subtilis; 0.2%, 14 days incubation): 4 (1001 to 10,000 colonies (thus 10,000 cfu/mL to 100,000 cfu/mL))
- Grade code B. subtilis (Bacillus subtilis; 0.2%, 30 days incubation): 4 (1001 to 10,000 colonies (thus 10,000 cfu/mL to 100,000 cfu/mL))
- Grade code P. vulqaris (Proteus vulgaris; 3 days incubation): 4 (1001 to 10,000 colonies (thus 10,000 cfu/mL to 100,000 cfu/mL))
- Grade code P. vulqaris (Proteus vulgaris; 13 days incubation): 4 (1001 to 10,000 colonies (thus 10,000 cfu/mL to 100,000 cfu/mL))
- Grade code P. vulqaris (Proteus vulgaris; 30 days incubation): 4 (1001 to 10,000 colonies (thus 10,000 cfu/mL to 100,000 cfu/mL))
